Patent publication US6867305B2, “Synthesis of epothilones, intermediates thereto and analogues thereof” (Sloan-Kettering Institute for Cancer Research, priority 1996, dated 2005)
Values joined by “and” are separate entries in the source; they are usually repeats but may differ in a detail not shown here. Identical values can stand only once. Like-named read-outs stand apart in the source and are kept apart here. Starred links: 1 amine or outer side, 2 acyl side, 3 side chain; linkers in the order of their positions; H or OH if unused. Positions of bridges follow the written chain, without caps; N, C: chain ends. Non-standard residues stand in square brackets, D forms with d. Residues, ends and D or L forms follow the SMILES beside them. Chains are numbered I, II in the order given. Actinocin(9to1) = Cc1c2oc3c(C)ccc(C(=O)[*:1])c3nc-2c(C(=O)[*:2])c(N)c1=O; NMeV = CN[C@H](C(=O)O)C(C)C; Sar = CNCC(=O)O

Columns and labels:
[1] = system: CCRF-CEM/VBL100 (vinblastine-resistant subline); assay: Tumor cell growth inhibition in vitro (XTT, 72 h); type: cell-based, human; settings: for cross-resistance (fold of resistance vs parent cell line): CCRF-CEM/VBL100 vs CCRF-CEM
Experimental: (§1) The fresh medium containing each drug was replenished every 7-14 days. […] In each case ,the drug-exposed cells were resuspended in fresh media for a minimum of 4 days before the experiments for the cell-growth inhibition was carried out.
(§2) The cells were cultured at an initial density of 2-5×10^4 cells per ml. They were maintained in a 5% CO2-humidified atmosphere at 37° C. in RPMI mediun 1640 (GIBCO/BRL) containing penicillin (100 units/ml), streptomycin (100 μg/ml) (GIBCO/BRL), and 5% heat-inactivated fetal bovine serum. For solid tumor cells growing in a monolayer (such as MCF-7/Adr), cytotoxicitiy of the drug was determined in 96-well microtiter plates by using the sulforhodamine B method as described by Skehan et al (23) for measuring the cellular protein content. For cells that were grown in suspension (such as CCRF-CEM and its sublines), cytotoxicitiy was measured by using the 2,-3-bis(2-methoxy-4-nitro-5-sulfophenyl)-5carboxanilide)-2H terazodium hydroxide (XTT)-microculture tetrazonium method (24) in duplicate in 96-well microtiter plates. For both methods, the absorbance of each well was measured with a microplate reader (EL-340, Bio-Tek, Burlington, Vt.). Each run entailed six or seven concentrations of the tested drugs. Dose-effect relationship data were analyzed with the median-effect plot (25) by using a previously described computer program (26).

[2] = system: CCRF-CEM human T-cell acute lymphoblastic leukemia cells; assay: Tumor cell growth inhibition in vitro (XTT, 72 h); type: cell-based; settings: for IC50: CCRF-CEM, 72 h incubation
Experimental: as §1, §2

[3] = system: UL-3-C ovarian adenocarcinoma; assay: Tumor cell growth inhibition in vitro; type: cell-based, human; settings: read-out: IC50
Experimental: as §1, §2

[4] = system: MX-1 human mammary carcinoma; assay: Tumor cell growth inhibition in vitro; type: cell-based
Experimental: as §2, with “They were maintained in a 5% CO2-humidified atmosphere at 37° C. in RPMI mediun 1640 (GIBCO/BRL) containing penicillin (100 units/ml), streptomycin (100 μg/ml) (GIBCO/BRL), and 5% heat-inactivated fetal bovine serum.” left out

[5] = system: B16 Melanoma; type: in vivo, murine; settings: B16 Melanoma, i/p, maximal tolerated doses
[6] = system: UL-3-B/Taxol
[7] = system: MX-1 mammary carcinoma xenograft; settings: MX-1, i.p., ref 19 (Table 4)
[8] = Body-weight decrease and lethality in tumor-bearing nude mice; settings: nude mice
Experimental: (§3) Depending on the tumor type, treatment started on day 10 to day 21 when subcutaneous tumor size reached 35-200 mm^3, except otherwise indicated. Tumor size and body-weight were recorded every other day (Q2D) and, for humane reasons, the animals were sacrificed when tumor size reached ≧10% of body-weight. Each group, including untreated control, consisted of 3-5 animals unless otherwise indicated.
Essential features of useful cancer therapeutic agent involve not only high efficiency against cancer but also low toxicity toward the host, especially toward vital organs or functions [i.e. wide therapeutic window or high therapeutic index (LD50/ED50)].
(§4) Human tumor cells (5×10^6) or tumor tissue (30-50 mg) were implanted s.c. flank in nu/nu mice (Charles River Laboratories, Wilmington, Mass.). When tumor grew to a specified size, treatment was started by every-other day×5 with 6 hr i.v.-infusion, unless otherwise indicated. Tumor volume was measured with calipers in three dimensions (length×width×height or width). Body-weight changes and lethality were monitored every other day.

[9] = system: DC-3F hamster lung fibroblasts; assay: Tumor cell growth inhibition in vitro; type: cell-based; settings: read-out: IC50
Experimental: as §1, §2

[10] = system: CCRF-CEM/Taxol (paclitaxel-resistant subline); assay: Tumor cell growth inhibition in vitro (XTT, 72 h); type: cell-based, human
Experimental: as §1, §2

[11] = system: K562 human chronic myeloblastic leukemia; assay: Tumor cell growth inhibition in vitro; type: cell-based; settings: Homo sapiens, K562, K562
Experimental: as §2, with “They were maintained in a 5% CO2-humidified atmosphere at 37° C. in RPMI mediun 1640 (GIBCO/BRL) containing penicillin (100 units/ml), streptomycin (100 μg/ml) (GIBCO/BRL), and 5% heat-inactivated fetal bovine serum.” left out

[12] = system: PC-3 prostate adenocarcinoma xenograft; assay: Human tumor xenograft in nude mice; type: in vivo; settings: PC-3, i.v. infusion
Experimental: as §3
(§5) Athymic nude mice bearing the nu/nu gene were used for all human tumor xenografts. Outbred, Swiss-background mice were obtained from Charles River Laboratories. Male mice 8 weeks or older weighing 22 g and up were used for most experiments. The drug was administered via the tail vein for 6 hr.-i.v. infusion. Each individual mouse was confined in a perforated Falcon polypropylene tube restrainer for drug administration. Tumor volume was assessed by measuring length×width×height (or width) using a caliper. The programmable Harvard PHD2000 syringe pump (Harvard Apparatus) with multi-track was used for i.v. infusion. […] All animal studies were conducted in accordance with the guidelines of the National Institutes of Health “Guide for the Care and Use of Animals” and the protocol approved by the Memorial Sloan-Kettering Cancer Center's Institutional Animal Care and Use Committee. In keeping with the policy of this committee for the humane treatment of tumor-bearing animals, mice were euthanized when tumors reached ≧10% of their total body weight.
as §4

[13] = system: A549 lung carcinoma xenograft; assay: Human tumor xenograft in nude mice; type: in vivo; settings: A549, i.v. infusion
Experimental: as §3, §5, §4

[14] = system: CCRF-CEM/VM1 (teniposide-resistant subline); assay: Tumor cell growth inhibition in vitro (XTT, 72 h); type: cell-based, human; settings: Homo sapiens, CCRF-CEM, 72 h
Experimental: as §1, §2

[15] = system: CCRF-CEM/VM2; assay: Cell growth inhibition, resistant subline; type: cell-based, human
Experimental: as §1, §2

[16] = system: MCF-7/Adr mammary xenograft; assay: Human tumor xenograft in nude mice; type: in vivo; settings: i.v. infusion

Question: With `CC1=CCC(C(C)=Cc2csc(C)n2)NC(=O)CC(O)C(C)(C)C(=O)C(C)C(O)C(C)CCC1` [15-epi-aza-dEpoB, 12,13,15-desoxy-15(R)-aza-epothilone B] as the compound, how does the IC50 ([1]; CCRF-CEM/VBL100, 72 h, read-out: IC50) read?
Answer: 551 nM

Question: What about the “cross-resistance (fold of resistance vs parent cell line)” value [1] of the same compound?
Answer: 4.6 x

Question: And the IC50 ([2]; read-out: IC50)?
Answer: 119 nM

Question: With `C/C(=C\c1csc(C)n1)[C@@H]1C[C@@H]2O[C@]2(C)CCC[C@H](C)[C@H](O)[C@@H](C)C(=O)C(C)(C)[C@@H](O)CC(=O)O1` [EpoB, epothilone B, reference compound] as the compound, how does the IC50 [3] read?
Answer: 0.58 nM

Question: What about the IC50 [4] of the same compound?
Answer: 1.84 nM

Question: And the “Therapeutic Effect Rank Order” value [5]?
Answer: dEpoB>Taxol>>EpoB

Question: And the IC50 ([6]; UL-3-B/Taxol)?
Answer: 1.24 nM

Question: And the “cross-resistance (fold of resistance vs parent cell line)” value ([6]; UL-3-B/Taxol vs UL-3-C)?
Answer: 2.1 x

Question: What about the “Therapeutic Effect Rank Order” value [7] of the same compound?
Answer: dEpoB>Camptothecin>Taxol>VBL, EpoB

Question: And the “drop in body-weight that led to lethality” value [8]?
Answer: 14-20%

Question: Which IC50 [9] does the source give for `Cc1c2oc3c(C)ccc(C(=O)N[C@@H]4C(=O)N[C@H](C(C)C)C(=O)N5CCC[C@H]5C(=O)N(C)CC(=O)N(C)[C@@H](C(C)C)C(=O)O[C@@H]4C)c3nc-2c(C(=O)N[C@@H]2C(=O)N[C@H](C(C)C)C(=O)N3CCC[C@H]3C(=O)N(C)CC(=O)N(C)[C@@H](C(C)C)C(=O)O[C@@H]2C)c(N)c1=O` [Actinomycin D, actinomycin D, reference compound] (I: T[dV]P[Sar][NMeV] / II: T[dV]P[Sar][NMeV]; ester I:1-I:C, II:1-II:C; linker I:N-II:N via Actinocin(9to1)) here?
Answer: 0.25 nM and 0.31 nM

Question: For `C/C1=C/CC(/C(C)=C/c2csc(C)n2)NC(=O)CC(O)C(C)(C)C(=O)[C@H](C)[C@@H](O)[C@@H](C)CCC1` (stereo partly drawn) [aza-dEpoB, 12,13,15-desoxy-15(S)-aza-epothilone B], which “cross-resistance (fold of resistance vs parent cell line)” value [1] is on record?
Answer: 35.8 x

Question: What about the IC50 ([1]; Homo sapiens, CCRF-CEM, 72 h) of the same compound?
Answer: 997 nM

Question: And the “cross-resistance (fold of resistance vs parent cell line)” value ([10]; CCRF-CEM/Taxol vs CCRF-CEM)?
Answer: 38.4 x

Question: What about the IC50 ([10]; Homo sapiens, CCRF-CEM, 72 h) of the same compound?
Answer: 791 nM

Question: What about the IC50 [11] of the same compound?
Answer: 2.4 nM

Question: And the IC50 ([2]; Homo sapiens, 72 h)?
Answer: 27.8 nM

Question: What about the “potency relative to aza-EpoB (fold less potent)” value ([2]; in vitro cell lines) of the same compound?
Answer: about 10 fold

Question: For `COc1cc([C@@H]2c3cc4c(cc3[C@@H](O[C@@H]3O[C@@H]5CO[C@@H](C)O[C@H]5[C@H](O)[C@H]3O)[C@H]3COC(=O)[C@H]23)OCO4)cc(OC)c1O` [Etoposide, etoposide, reference compound], which “Therapeutic Effect Rank Order” value [12] is on record?
Answer: Taxol, VBL>dEpoB>>VP-16

Question: And the “Therapeutic Effect Rank Order” value [13]?
Answer: Taxol, dEpoB, VBL>VP-16

Question: What about the IC50 [14] of the same compound?
Answer: 3440 nM

Question: And the “fold resistance vs original CCRF-CEM” value ([15]; CCRF-CEM/VM2)?
Answer: 69 fold

Question: What about the IC50 ([15]; Homo sapiens, CCRF-CEM/VM2, exposed to teniposide 12 months) of the same compound?
Answer: 19800 nM

Question: What about the “Therapeutic Effect Rank Order” value [16] of the same compound?
Answer: dEpoB>>VP-16, Taxol>VBL, Adriamycin

Question: What about the IC50 [2] of the same compound?
Answer: 29 nM
